A short description of the data set: Analytical results and impurity profile of batches of Form A and Form B of lurbinectedin. The format is physicochemical. Set-up: Impurity RRT approx. 1.10-1.11 / Impurity RRT approx. 1.12 / Impurity RRT approx. 1.27-1.34 / Impurity RRT approx. 1.29-1.30 / Impurity RRT approx. 1.30-1.32 / Impurity RRT approx. 1.28-1.37 / Impurity RRT approx. 2.37 / Impurity RRT approx. 2.41-2.52 / Impurity RRT approx. 2.85 / Impurity RRT approx. 0.66-0.69 / Impurity RRT approx. 0.72-0.76: unit not given here. The text has this:
Several batches of Form A of lurbinectedin were manufactured by this method.
Several batches of Form B of lurbinectedin were manufactured by this method.

Where [1] appears, read: batches of Form B of lurbinectedin.
The mark [2] stands for this setting: impurity profile, batches of Form B.
The mark [3] stands for this setting: impurity profile, batches of Form A.
The mark [4] stands for this setting: batches of Form A of lurbinectedin.

The structures appear in SMILES notation.

On to `COc1ccc2[nH]c3c(c2c1)CCN[C@]31CS[C@@H]2c3c(OC(C)=O)c(C)c4c(c3[C@H](COC1=O)N1[C@@H]2[C@H]2c3c(cc(C)c(OC)c3O)C[C@@H]([C@@H]1O)N2C)OCO4` [Batch 1711182-2], for which, under setting [1], the “Residual Solvents Acetonitrile” value is “<LOQ”, the “Residual Solvents CH2Cl2” value is listed as “<LOQ”, the “Residual Solvents Methanol” value was “<LOQ” and the “Residual Solvents Pentane” value was “<LOQ”. Under setting [1], the “Residual Solvents Total” value was 0.0 % w/w, the “Total Impurities” value worked out at 0.3 % Area and the “Water Content” value is 2.4 % w/w. For the same compound, the “Impurity RRT aprox 0.72-0.76” value under setting [2] is 0.34 % area.
Consider `COc1ccc2[nH]c3c(c2c1)CCN[C@]31CS[C@@H]2c3c(OC(C)=O)c(C)c4c(c3[C@H](COC1=O)N1[C@@H]2[C@H]2c3c(cc(C)c(OC)c3O)C[C@@H]([C@@H]1O)N2C)OCO4` [Batch 1711189-2], for which, under setting [1], the “Residual Solvents Acetonitrile” value was “<LOQ”, the “Residual Solvents CH2Cl2” value is “<LOQ”, the “Residual Solvents Methanol” value is listed as “<LOQ” and the “Residual Solvents Pentane” value is on record as “<LOQ”. For the same compound, under setting [1], the “Residual Solvents Total” value came to 0.0 % w/w, the “Total Impurities” value was 0.3 % Area and the “Water Content” value was 2.5 % w/w. Besides, under setting [2], the “Impurity RRT aprox 0.66-0.69” value came to 0.05 % area and the “Impurity RRT aprox 0.72-0.76” value is 0.30 % area.
Turning to `COc1ccc2[nH]c3c(c2c1)CCN[C@]31CS[C@@H]2c3c(OC(C)=O)c(C)c4c(c3[C@H](COC1=O)N1[C@@H]2[C@H]2c3c(cc(C)c(OC)c3O)C[C@@H]([C@@H]1O)N2C)OCO4` [Batch 1799069], under setting [1], the “Residual Solvents Acetonitrile” value was “<LOQ”, the “Residual Solvents CH2Cl2” value is “<LOQ”, the “Residual Solvents Methanol” value is recorded as “<LOQ” and the “Residual Solvents Pentane” value is listed as “<LOQ”. For the same compound, under setting [1], the “Residual Solvents Total” value came out at 0.0 % w/w, the “Total Impurities” value turned out to be 0.4 % Area and the “Water Content” value was 2.0 % w/w. Under setting [2], the “Impurity RRT aprox 0.72-0.76” value was 0.31 % area and the “Impurity RRT aprox 1.10-1.11” value came to 0.06 % area.
For `COc1ccc2[nH]c3c(c2c1)CCN[C@]31CS[C@@H]2c3c(OC(C)=O)c(C)c4c(c3[C@H](COC1=O)N1[C@@H]2[C@H]2c3c(cc(C)c(OC)c3O)C[C@@H]([C@@H]1O)N2C)OCO4` [Batch F02], under setting [3], the “Impurity RRT approx. 0.66-0.69” value stood at 0.19, the “Impurity RRT approx. 0.72-0.76” value is on record as 0.06, the “Impurity RRT approx. 1.10-1.11” value is reported as 0.17 and the “Impurity RRT approx. 1.27-1.34” value is given as 0.12. Besides, under setting [3], the “Impurity RRT approx. 1.30-1.32” value is on record as 0.09, the “Impurity RRT approx. 2.41-2.52” value was determined as 0.07 and the “Impurity RRT approx. 2.85” value worked out at 0.07.
Regarding `COc1ccc2[nH]c3c(c2c1)CCN[C@]31CS[C@@H]2c3c(OC(C)=O)c(C)c4c(c3[C@H](COC1=O)N1[C@@H]2[C@H]2c3c(cc(C)c(OC)c3O)C[C@@H]([C@@H]1O)N2C)OCO4` [Batch G01], under setting [3], the “Impurity RRT approx. 0.66-0.69” value is on record as 0.06, the “Impurity RRT approx. 0.72-0.76” value worked out at 0.11, the “Impurity RRT approx. 1.10-1.11” value is listed as 0.50 and the “Impurity RRT approx. 1.30-1.32” value came out at 0.13.
On to `COc1ccc2[nH]c3c(c2c1)CCN[C@]31CS[C@@H]2c3c(OC(C)=O)c(C)c4c(c3[C@H](COC1=O)N1[C@@H]2[C@H]2c3c(cc(C)c(OC)c3O)C[C@@H]([C@@H]1O)N2C)OCO4` [Batch K02], for which, under setting [3], the “Impurity RRT approx. 0.72-0.76” value turned out to be 0.09, the “Impurity RRT approx. 1.10-1.11” value is 0.13, the “Impurity RRT approx. 1.29-1.30” value turned out to be 0.07 and the “Impurity RRT approx. 1.30-1.32” value worked out at 0.19.
For the compound `COc1ccc2[nH]c3c(c2c1)CCN[C@]31CS[C@@H]2c3c(OC(C)=O)c(C)c4c(c3[C@H](COC1=O)N1[C@@H]2[C@H]2c3c(cc(C)c(OC)c3O)C[C@@H]([C@@H]1O)N2C)OCO4` [Batch K03], under setting [3], the “Impurity RRT approx. 0.72-0.76” value worked out at 0.07, the “Impurity RRT approx. 1.10-1.11” value is on record as 0.17, the “Impurity RRT approx. 1.29-1.30” value was 0.37 and the “Impurity RRT approx. 1.30-1.32” value was 0.08.
In the case of `COc1ccc2[nH]c3c(c2c1)CCN[C@]31CS[C@@H]2c3c(OC(C)=O)c(C)c4c(c3[C@H](COC1=O)N1[C@@H]2[C@H]2c3c(cc(C)c(OC)c3O)C[C@@H]([C@@H]1O)N2C)OCO4` [Batch K04], under setting [3], the “Impurity RRT approx. 1.10-1.11” value turned out to be 0.20, the “Impurity RRT approx. 1.29-1.30” value is 0.11 and the “Impurity RRT approx. 1.30-1.32” value was found to be 0.08.
As for `COc1ccc2[nH]c3c(c2c1)CCN[C@]31CS[C@@H]2c3c(OC(C)=O)c(C)c4c(c3[C@H](COC1=O)N1[C@@H]2[C@H]2c3c(cc(C)c(OC)c3O)C[C@@H]([C@@H]1O)N2C)OCO4` [Batch M01], under setting [3], the “Impurity RRT approx. 0.72-0.76” value is reported as 0.10, the “Impurity RRT approx. 1.10-1.11” value was found to be 0.08, the “Impurity RRT approx. 1.29-1.30” value was determined as 0.10 and the “Impurity RRT approx. 1.30-1.32” value is 0.18.
Take `COc1ccc2[nH]c3c(c2c1)CCN[C@]31CS[C@@H]2c3c(OC(C)=O)c(C)c4c(c3[C@H](COC1=O)N1[C@@H]2[C@H]2c3c(cc(C)c(OC)c3O)C[C@@H]([C@@H]1O)N2C)OCO4` [Batch M02]: under setting [3], the “Impurity RRT approx. 0.72-0.76” value was determined as 0.08, the “Impurity RRT approx. 1.10-1.11” value came out at 0.10, the “Impurity RRT approx. 1.28-1.37” value turned out to be 0.08 and the “Impurity RRT approx. 1.29-1.30” value is on record as 0.17. The “Impurity RRT approx. 1.30-1.32” value under setting [3] worked out at 0.08.
Take `COc1ccc2[nH]c3c(c2c1)CCN[C@]31CS[C@@H]2c3c(OC(C)=O)c(C)c4c(c3[C@H](COC1=O)N1[C@@H]2[C@H]2c3c(cc(C)c(OC)c3O)C[C@@H]([C@@H]1O)N2C)OCO4` [Batch M03]: under setting [3], the “Impurity RRT approx. 0.72-0.76” value was found to be 0.12, the “Impurity RRT approx. 1.10-1.11” value stood at 0.11, the “Impurity RRT approx. 1.29-1.30” value amounted to 0.10 and the “Impurity RRT approx. 1.30-1.32” value is reported as 0.11.
For `COc1ccc2[nH]c3c(c2c1)CCN[C@]31CS[C@@H]2c3c(OC(C)=O)c(C)c4c(c3[C@H](COC1=O)N1[C@@H]2[C@H]2c3c(cc(C)c(OC)c3O)C[C@@H]([C@@H]1O)N2C)OCO4` [Batch P01], under setting [4], the “Impurities Total” value was 0.3 % Area, the “Residual Solvents Acetonitrile” value was determined as 0.01 % w/w, the “Residual Solvents Dichloro-methane” value is recorded as “<LOQ” and the “Residual Solvents Ethyl acetate” value is listed as “<LOQ”. For the same compound, under setting [4], the “Residual Solvents Hexane” value was “<LOQ”, the “Residual Solvents Methanol” value stood at 1.1 % w/w, the “Residual Solvents Pentane” value came out at 0.2 % w/w and the “Residual Solvents Total” value is recorded as 1.4 % w/w. Also, under setting [4], the “Water Content” value is given as 0.9 % w/w. Under setting [3], the “Impurity RRT approx. 1.10-1.11” value worked out at 0.15 and the “Impurity RRT approx. 1.29-1.30” value amounted to 0.09.
Regarding `COc1ccc2[nH]c3c(c2c1)CCN[C@]31CS[C@@H]2c3c(OC(C)=O)c(C)c4c(c3[C@H](COC1=O)N1[C@@H]2[C@H]2c3c(cc(C)c(OC)c3O)C[C@@H]([C@@H]1O)N2C)OCO4` [Batch P02], under setting [4], the “Impurities Total” value is on record as 0.4 % Area, the “Residual Solvents Acetonitrile” value was “<LOQ”, the “Residual Solvents Dichloro-methane” value was “<LOQ” and the “Residual Solvents Ethyl acetate” value is “<LOQ”. In addition, under setting [4], the “Residual Solvents Hexane” value is 0.01 % w/w, the “Residual Solvents Methanol” value is recorded as 1.7 % w/w, the “Residual Solvents Pentane” value turned out to be 0.2 % w/w and the “Residual Solvents Total” value stood at 1.9 % w/w. The “Water Content” value under setting [4] was determined as 1.2 % w/w. Under setting [3], the “Impurity RRT approx. 1.10-1.11” value was 0.09, the “Impurity RRT approx. 1.29-1.30” value is recorded as 0.06 and the “Impurity RRT approx. 1.30-1.32” value is 0.13.
`COc1ccc2[nH]c3c(c2c1)CCN[C@]31CS[C@@H]2c3c(OC(C)=O)c(C)c4c(c3[C@H](COC1=O)N1[C@@H]2[C@H]2c3c(cc(C)c(OC)c3O)C[C@@H]([C@@H]1O)N2C)OCO4` [Batch P03]: under setting [4], the “Impurities Total” value turned out to be 0.3 % Area, the “Residual Solvents Acetonitrile” value is listed as “<LOQ”, the “Residual Solvents Dichloro-methane” value stood at 0.01 % w/w and the “Residual Solvents Ethyl acetate” value is given as “<LOQ”. Also, under setting [4], the “Residual Solvents Hexane” value is listed as “<LOQ”, the “Residual Solvents Methanol” value is reported as 1.6 % w/w, the “Residual Solvents Pentane” value was determined as 0.3 % w/w and the “Residual Solvents Total” value was 1.9 % w/w. Moreover, under setting [4], the “Water Content” value was 1.6 % w/w. Under setting [3], the “Impurity RRT approx. 1.12” value is given as 0.07 and the “Impurity RRT approx. 1.29-1.30” value came out at 0.09.
Turning to `COc1ccc2[nH]c3c(c2c1)CCN[C@]31CS[C@@H]2c3c(OC(C)=O)c(C)c4c(c3[C@H](COC1=O)N1[C@@H]2[C@H]2c3c(cc(C)c(OC)c3O)C[C@@H]([C@@H]1O)N2C)OCO4` [Batch P05], under setting [1], the “Residual Solvents AcOEt” value is listed as “<LOQ”, the “Residual Solvents Acetonitrile” value is “<LOQ”, the “Residual Solvents CH2Cl2” value was “<LOQ” and the “Residual Solvents Hexane” value is reported as “<LOQ”. Besides, under setting [1], the “Residual Solvents Methanol” value was “<LOQ”, the “Residual Solvents Pentane” value is “<LOQ”, the “Residual Solvents Total” value is 0.0 % w/w and the “Total Impurities” value is on record as 0.3 % Area. Also, the “Water Content” value under setting [1] is listed as 2.1 % w/w. Moreover, under setting [2], the “Impurity RRT aprox 0.72-0.76” value was found to be 0.24 % area and the “Impurity RRT aprox 1.10-1.11” value is on record as 0.07 % area.
Consider `COc1ccc2[nH]c3c(c2c1)CCN[C@]31CS[C@@H]2c3c(OC(C)=O)c(C)c4c(c3[C@H](COC1=O)N1[C@@H]2[C@H]2c3c(cc(C)c(OC)c3O)C[C@@H]([C@@H]1O)N2C)OCO4` [Batch R01], for which, under setting [1], the “Residual Solvents AcOEt” value was “<LOQ”, the “Residual Solvents Acetonitrile” value is “<LOQ”, the “Residual Solvents CH2Cl2” value is recorded as “<LOQ” and the “Residual Solvents Hexane” value is “<LOQ”. Under setting [1], the “Residual Solvents Methanol” value is listed as “<LOQ”, the “Residual Solvents Pentane” value is “<LOQ”, the “Residual Solvents Total” value is 0.0 % w/w and the “Total Impurities” value stood at 0.3 % Area. Also, under setting [1], the “Water Content” value amounted to 1.9 % w/w. Besides, under setting [2], the “Impurity RRT aprox 0.72-0.76” value came to 0.22 % area and the “Impurity RRT aprox 1.10-1.11” value came out at 0.09 % area.
